# Measurements published in patent US11534457B2, “Use of dextran sulfate” (priority 2017, dated 2022).
# Marks after values point to notes of the source that are not given here.
# System: severe traumatic brain injury (sTBI)
# Assay: sTBI in rats, HPLC of purine-pyrimidine / energy metabolites in brain (Example 3)
# Type: in vivo, Male Wistar rats
# Protocol: The experimental protocol used in this study was approved by the Ethical Committee of the Catholic University of Rome, according to international standards and guidelines for animal care. Male Wistar rats of 300-350 g body weight (b.w.) were fed with standard laboratory diet and water ad libitum in a controlled environment.
# 1) n=6 animals subjected to sTBI, with drug administration after 30 minutes and sacrifice at 2 days post-TBI (Acute phase 1)
# 2) n=6 animals subjected to severe-TBI, with drug administration after 30 minutes and sacrifice at 7 days post-TBI (Acute phase 2).
# 3) n=6 animals subjected to severe-TBI, with drug administration after 3 days and sacrifice at 7 days post-TBI (Chronic phase).
# As the anesthetic mixture, animals received 35 mg/kg b.w. ketamine and 0.25 mg/kg b.w. midazolam by i.p. injection. sTBI was induced by dropping a 450 g weight from 2 m height on to the rat head that had been protected by a metal disk previously fixed on the skull, according to the “weight drop” impact acceleration model (Marmarou et al., A new model of diffuse brain injury in rats. Part I: Pathophysiology and biomechanics. J Neurosurg. 1994; 80: 291-300). […] At the end of each period of treatment, rats were anesthetized again and then immediately sacrificed.
# The drug treatment was a subcutaneous injection of 0.5 ml of LMW-DS (15 mg/kg) and administered according to the aforementioned schematic protocol.
# An in vivo craniectomy was performed in all animals during anesthesia, after carefully removing the rat's skull, the brain was exposed and removed with a surgical spatula and quickly dropped in liquid nitrogen. After the wet weight (w.w.) determination, tissue preparation was affected as previously disclosed (Tavazzi et al., Cerebral oxidative stress and depression of energy metabolism correlate with severity of diffuse brain injury in rats. Neurosurgery. 2005; 56: 582-589; Vagnozzi et al., Temporal window of metabolic brain vulnerability to concussions: mitochondrial-related impairment-part I. Neurosurgery. 2007; 61: 379-388; Tavazzi et al., Temporal window of metabolic brain vulnerability to concussions: oxidative and nitrosative stresses-part II. Neurosurgery. 2007; 61: 390-395; Amorini et al., Severity of experimental traumatic brain injury modulates changes in concentrations of cerebral free amino acids. J Cell Mol Med. 2017; 21: 530-542.). Briefly, whole brain homogenization was performed with 7 ml of ice-cold, nitrogen-saturated, precipitating solution composed by CH3CN+10 mM KH2PO4, pH 7.40, (3:1; v:v), and using an Ultra-Turrax set at 24,000 rpm/min (Janke & Kunkel, Staufen, Germany). After centrifugation at 20,690×g, for 10 min at 4° C., the clear supernatants were saved, pellets were supplemented with 3 ml of the precipitating solution and homogenized again as described above. A second centrifugation was performed (20,690×g, for 10 min at 4° C.), pellets were saved, supernatants combined with those previously obtained, extracted by vigorous agitation with a double volume of HPLC-grade CHCl3 and centrifuged as above. The upper aqueous phases containing water-soluble low-molecular weight compounds were collected, subjected to chloroform washings for two more times (this procedure allowed the removal of all the organic solvent and of any lipid soluble compound from the buffered tissue extracts), adjusted in volumes with 10 mM KH2PO4, pH 7.40, to have ultimately aqueous 10% tissue homogenates and saved at −80° C. until assayed. […]
# [1] = Acute phase 1: 15 mg/kg s.c. 30 min post-sTBI, sacrifice 2 days
# [2] = Acute phase 2: 15 mg/kg s.c. 30 min post-sTBI, sacrifice 7 days
substance,measurement,setting,value
low molecular weight dextran sulfate [LMW-DS],brain MDA levels,15 mg/kg s.c.,significant reduction
same,brain NAA and its substrates,15 mg/kg s.c.,significant improvements
same,brain ascorbic acid and GSH levels,15 mg/kg s.c.,significant improvement
same,brain nitrate concentrations,"15 mg/kg s.c., acute and chronic phases of sTBI",significantly decreased
same,"ADO, cerebral concentration",[1],71.67 ± 15.87 nmol/g (w.w.)
same,"ADP, cerebral concentration",[1],279.34 ± 29.59^b nmol/g (w.w.)
same,"ADP-ribose, cerebral concentration",[1],137.87 ± 43.18^a nmol/g (w.w.)
same,"AMP, cerebral concentration",[1],"53.61 ± 17.91^a,c,j nmol/g (w.w.)"
same,"ATP, cerebral concentration",[1],"1464.25 ± 99.09^a,h nmol/g (w.w.)"
same,"CDP choline, cerebral concentration",[1],"10.93 ± 3.22^b,h nmol/g (w.w.)"
same,"CDP, cerebral concentration",[1],"25.53 ± 6.83^a,c nmol/g (w.w.)"
same,"CMP, cerebral concentration",[1],"30.12 ± 9.97^a,h nmol/g (w.w.)"
same,"CTP, cerebral concentration",[1],"18.98 ± 6.58^a,g nmol/g (w.w.)"
same,"CoA-SH, cerebral concentration",[1],"21.61 ± 3.42^a,h nmol/g (w.w.)"
same,"GDP glucose, cerebral concentration",[1],38.71 ± 6.86 nmol/g (w.w.)
same,"GDP, cerebral concentration",[1],158.72 ± 24.57^a nmol/g (w.w.)
same,"GMP, cerebral concentration",[1],"177.00 ± 32.39^a,g nmol/g (w.w.)"
same,"GSH, cerebral concentration",[1],"2649.50 ± 397.31^a,d nmol/g (w.w.)"
same,"GSSG, cerebral concentration",[1],185.21 ± 48.10 nmol/g (w.w.)
same,"GTP, cerebral concentration",[1],"255.29 ± 45.21^a,g nmol/g (w.w.)"
same,"IMP, cerebral concentration",[1],"67.71 ± 10.63^g,i nmol/g (w.w.)"
same,"MDA, cerebral concentration",[1],"12.47 ± 2.09^a,c,g nmol/g (w.w.)"
same,"NADH, cerebral concentration",[1],"15.49 ± 2.05^c,j nmol/g (w.w.)"
same,"NADPH, cerebral concentration",[1],6.22 ± 1.73 nmol/g (w.w.)
same,"NADP^+, cerebral concentration",[1],17.95 ± 3.28^a nmol/g (w.w.)
same,"NAD^+, cerebral concentration",[1],"404.63 ± 51.10^a,c,i nmol/g (w.w.)"
same,"NM, cerebral concentration",[1],6147.91 ± 989.12^a nmol/g (w.w.)
same,"NO2, cerebral concentration",[1],216.03 ± 41.74^a nmol/g (w.w.)
same,"NO3, cerebral concentration",[1],210.64 ± 91.95^d nmol/g (w.w.)
same,"UDP, cerebral concentration",[1],"61.83 ± 10.23^a,g nmol/g (w.w.)"
same,"UDP-Gal, cerebral concentration",[1],119.45 ± 12.50 nmol/g (w.w.)
same,"UDP-GalNac, cerebral concentration",[1],19.17 ± 4.01^a nmol/g (w.w.)
same,"UDP-Glc, cerebral concentration",[1],32.14 ± 4.59^g nmol/g (w.w.)
same,"UDP-GlcNac, cerebral concentration",[1],"95.85 ± 19.73^h,i nmol/g (w.w.)"
same,"UMP, cerebral concentration",[1],107.80 ± 21.62 nmol/g (w.w.)
same,"UTP, cerebral concentration",[1],123.46 ± 15.42^d nmol/g (w.w.)
same,"acetyl-CoA, cerebral concentration",[1],"21.56 ± 6.22^a,g,i nmol/g (w.w.)"
same,"adenine, cerebral concentration",[1],"44.82 ± 6.31^a,d,g nmol/g (w.w.)"
same,"ascorbic acid, cerebral concentration",[1],"3733.10 ± 277.88^a,d nmol/g (w.w.)"
same,"creatinine, cerebral concentration",[1],"24.55 ± 3.20^b,g,i nmol/g (w.w.)"
same,"cytidine, cerebral concentration",[1],15.40 ± 3.04 nmol/g (w.w.)
same,"cytosine, cerebral concentration",[1],"17.69 ± 2.50^b,d nmol/g (w.w.)"
same,"guanine, cerebral concentration",[1],4.80 ± 1.24^b nmol/g (w.w.)
same,"guanosine, cerebral concentration",[1],20.71 ± 5.66 nmol/g (w.w.)
same,"hypoxanthine, cerebral concentration",[1],14.47 ± 2.87^a nmol/g (w.w.)
same,"inosine, cerebral concentration",[1],92.55 ± 31.20^c nmol/g (w.w.)
same,"malonyl-CoA, cerebral concentration",[1],12.33 ± 1.82^b nmol/g (w.w.)
same,"orotic acid, cerebral concentration",[1],"8.80 ± 2.45^b,h,j nmol/g (w.w.)"
same,"thymidine, cerebral concentration",[1],0.69 ± 0.11 nmol/g (w.w.)
same,"uracil, cerebral concentration",[1],14.56 ± 5.44 nmol/g (w.w.)
same,"uric acid, cerebral concentration",[1],"23.62 ± 3.77^a,d,h nmol/g (w.w.)"
same,"uridine, cerebral concentration",[1],"76.35 ± 12.85^a,c nmol/g (w.w.)"
same,"xanthine, cerebral concentration",[1],9.46 ± 2.34^d nmol/g (w.w.)
same,"β-pseudouridine, cerebral concentration",[1],"6.65 ± 1.30^g,i nmol/g (w.w.)"
same,"ADO, cerebral concentration",[2],82.11 ± 16.51^a nmol/g (w.w.)
same,"ADP, cerebral concentration",[2],"264.07 ± 28.29^b,e,j nmol/g (w.w.)"
same,"ADP-ribose, cerebral concentration",[2],"141.96 ± 23.56^a,e,j nmol/g (w.w.)"
same,"AMP, cerebral concentration",[2],"57.70 ± 23.01^a,e,j nmol/g (w.w.)"
same,"ATP, cerebral concentration",[2],"1632.23 ± 90.07^a,e,j nmol/g (w.w.)"
same,"CDP choline, cerebral concentration",[2],6.91 ± 1.86 nmol/g (w.w.)
same,"CDP, cerebral concentration",[2],24.29 ± 6.76^a nmol/g (w.w.)
same,"CMP, cerebral concentration",[2],"15.68 ± 2.12^f,j nmol/g (w.w.)"
same,"CTP, cerebral concentration",[2],"32.63 ± 3.99^e,i nmol/g (w.w.)"
same,"CoA-SH, cerebral concentration",[2],30.57 ± 6.02^f nmol/g (w.w.)
same,"GDP glucose, cerebral concentration",[2],49.25 ± 10.33^a nmol/g (w.w.)
same,"GDP, cerebral concentration",[2],"126.70 ± 31.35^a,j nmol/g (w.w.)"
same,"GMP, cerebral concentration",[2],"91.47 ± 12.35^e,i nmol/g (w.w.)"
same,"GSH, cerebral concentration",[2],"2821.50 ± 242.82^a,e nmol/g (w.w.)"
same,"GSSG, cerebral concentration",[2],219.54 ± 53.36 nmol/g (w.w.)
same,"GTP, cerebral concentration",[2],"336.65 ± 35.18^a,e,j nmol/g (w.w.)"
same,"IMP, cerebral concentration",[2],102.63 ± 22.09^a nmol/g (w.w.)
same,"MDA, cerebral concentration",[2],"4.82 ± 1.73^a,e,i nmol/g (w.w.)"
same,"NADH, cerebral concentration",[2],13.12 ± 4.19^e nmol/g (w.w.)
same,"NADPH, cerebral concentration",[2],7.05 ± 2.21 nmol/g (w.w.)
same,"NADP^+, cerebral concentration",[2],"21.27 ± 4.19^b,e,j nmol/g (w.w.)"
same,"NAD^+, cerebral concentration",[2],"401.18 ± 34.53^a,e,i nmol/g (w.w.)"
same,"NM, cerebral concentration",[2],"7262.84 ± 749.73^a,e nmol/g (w.w.)"
